This passage reports IC50, inhibition and Activity results from ChEMBL document CHEMBL1156027, “Identification of methysticin as a potent and non-toxic NF-kappaB inhibitor from kava, potentially responsible for kava's chemopreventive activity” (Bioorg Med Chem Lett, 2009).

A short description of data set [1]: Inhibition of TNF-alpha-induced NF-kappaB expressed in human A549 cells treated 1 hr after TNFalpha challenge measured after 6 hrs by luciferase reporter gene assay. It counts as cell-based. (In a reporter assay the amount or activity of a reporter protein is the signal.)
A short description of data set [2]: Hepatotoxicity against mouse Hepa-1c1c7 cells after 48 hrs by celltiter blue assay. Format: toxicity, cell-based.
For data set [3], the system named is A549. In words: Inhibition of NF-kappaB expressed in human A549 cells assessed as suppression of TNF-alpha-induced IKKalpha level at 25 uM after 7 hrs by Western blotting. Format: cell-based. (In general: Immunoblotting shows a protein as a band on a membrane.)
The test system of data set [4] is A549. In words: Inhibition of NF-kappaB expressed in human A549 cells assessed as suppression of TNF-alpha-induced p65 level at 25 uM after 7 hrs by Western blotting. It counts as cell-based.
Data set [5] relates to A549. Put plainly: Inhibition of NF-kappaB expressed in human A549 cells assessed as suppression of TNF-alpha-induced COX2 level at 25 uM after 7 hrs by Western blotting. It counts as cell-based.
The test system of data set [6] is A549. In words: Inhibition of NF-kappaB expressed in human A549 cells assessed as prevention of TNF-alpha-induced IkappaBalpha degradation level at 25 uM after 7 hrs by Western blotting. Format: cell-based.
Data set [7] deals with A549. In words: […] against human A549 cells after 48 hrs by celltiter blue assay. The settings on record: a549, 48 h. Format: toxicity, cell-based. On the technique in general: Alamar Blue is a resazurin reagent that responds to reducing activity.
For a further data set, the system named is HL-60. Put plainly: Toxicity against human HL60 cells after 48 hrs by celltiter blue assay. Conditions: hl-60, 48 h. It counts as cell-based.
The next data set has as its system CCRF-CEM. Put plainly: Toxicity against human CCRF-CEM cells after 48 hrs by celltiter blue assay. It counts as cell-based.

SMILES strings stand for the structures. Values after ≈ are worked out from the molar mass of the structure shown. Active and inactive are the calls of the source. The calls are words filed in the database; no cut-off is given here.

In general, IC50 refers to the concentration needed to halve the response being measured. A higher IC50 goes with lower potency.

Regarding `COc1cc(/C=C/c2ccccc2)oc(=O)c1` [DESMETHOXYYANGONIN], half-maximal inhibition in [1] (IC50) required 33 µg/mL (≈ 145 µM). This molecule registered an IC50 at 48 h in [2] of 173 µg/mL (≈ 758 µM).

Consider `COC1=CC(=O)O[C@@H](CCc2ccccc2)C1` [DIHYDROKAWAIN], for which half-maximal inhibition in data set [1] (IC50) was put at 60 µg/mL (≈ 258 µM). This molecule also returned a half-inhibitory concentration (IC50) at 48 h in data set [2] of 175 µg/mL (≈ 753 µM).

The molecule `COC1=CC(=O)O[C@@H](CCc2ccc3c(c2)OCO3)C1` [DIHYDROMETHYSTICIN] returned an IC50 in data set [1] of 20 µg/mL (≈ 72.4 µM). In data set [2], this molecule showed an IC50 at 48 h of 313 µg/mL (≈ 1130 µM).

Turning to `COc1ccc(/C=C/C(=O)c2c(O)cc(OC)cc2OC)cc1` [FLAVOKAWAIN A], in [1], the IC50 is 11.6 µg/mL (≈ 36.9 µM). Further, the half-maximal inhibitory concentration (IC50) at 48 h in [2] worked out at 13.8 µg/mL (≈ 43.9 µM).

As to `COc1cc(O)c(C(=O)/C=C/c2ccccc2)c(OC)c1` [FLAVOKAWAIN B], in data set [1], the half-maximal inhibitory concentration (IC50) turned out to be 8 µg/mL (≈ 28.1 µM). In data set [2], this molecule showed an IC50 at 48 h of 6.6 µg/mL (≈ 23.2 µM).

For `COc1cc(O)c(C(=O)/C=C/c2ccc(O)cc2)c(OC)c1` [FLAVOKAWAIN C], in data set [1], the IC50 was found to be 8.1 µg/mL (≈ 27 µM). The molecule also displayed an IC50 at 48 h in [2] of 9.8 µg/mL (≈ 32.6 µM).

In data set [1], `COC1=CC(=O)O[C@@H](/C=C/c2ccccc2)C1` [KAVAIN] yielded a half-inhibitory concentration (IC50) of 32 µg/mL (≈ 139 µM). This molecule came in with an IC50 at 48 h in data set [2] of 166 µg/mL (≈ 721 µM).

Consider `COC1=CC(=O)O[C@@H](/C=C/c2ccc3c(c2)OCO3)C1` [METHYSTICIN], for which the 50% inhibitory concentration (IC50) in data set [1] turned out to be 0.19 µg/mL (≈ 0.693 µM). Moreover, the inhibition result in the data set on A549 [3], with A549 [4], in the data set with A549 [5] and in the data set with A549 [6] was “Active” each time. For the same molecule, in [2], the IC50 at 48 h turned out to be 392 µg/mL (≈ 1430 µM). The Activity result in the data set on A549 [7], with HL-60 and with CCRF-CEM was “Non-toxic” in each case.
